Assay results published in US7109231B2, “Cyclohept[b]indole derivatives” (Eli Lilly and Company, priority 2001, dated 2006).

Molecular target: T1, recombinant human secreted phospholipase A2 (Homo sapiens, UniProt P14555)
T1 sequence (P14555 21-144): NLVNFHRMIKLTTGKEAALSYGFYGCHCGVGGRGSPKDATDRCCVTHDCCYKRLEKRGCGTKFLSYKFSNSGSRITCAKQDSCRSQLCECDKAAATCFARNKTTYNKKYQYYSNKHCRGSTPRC
Experiment: chromogenic assay for inhibitors of recombinant human secreted phospholipase A2
Type: biochemical
Settings: diheptanoyl thio-PC substrate, pH 7.5, 40° C. for 30 minutes, absorbance at 405 nanometers, titrated in triplicate
From the text: The following chromogenic assay procedure was used to identify and evaluate inhibitors of recombinant human secreted phospholipase A2. The assay described herein has been adapted for high volume screening using 96 well microtiter plates. A general description of this assay method is found in the article, “Analysis of Human Synovial Fluid Phospholipase A2 on Short Chain Phosphatidylcholine-Mixed Micelles: Development of a Spectrophotometric Assay Suitable for a Microtiterplate Reader”, by Laure J. Reynolds, Lori L. Hughes, and Edward A Dennis, Analytical Biochemistry, 204, pp. 190–197, 1992 (the disclosure of which is incorporated herein by reference): […]
A measured volume of racemic dipheptanoyl thio PC supplied in chloroform at a concentration of 100 mg/ml is taken to dryness and redissolved in 10 millimolar TRITON X-100™ nonionic detergent aqueous solution. […]
• 1. […] Read absorbance of wells at 405 nanometers with an automatic plate reader.
Tests were done in triplicate. […] Compounds initially found to be active were re-assayed to confirm their activity and, if sufficiently active, IC50 values were determined. […] In all cases, % inhibition measured at 405 nanometers generated by enzyme reactions containing inhibitors relative to the uninhibited control reactions was determined. […]

- IC50: 0.248 µM
SMILES: NC(=O)C1CCCCc2c1c1c(OCC(=O)O)cccc1n2Cc1ccccc1 (stereo not shown) [Example 1, (5-Benzyl-10-carbamoyl-5,6,7,8,9,10-hexahydro-cyclohepta[b]indol-1-yloxy)acetic Acid]
